{"source": "patent US4879376A", "about": "“Triterpene saponins having anti-inflammatory, mucolytic and antiedemic activities, process for the preparation thereof and pharmaceutical compositions containing them” (priority 1986, dated 1989)", "key": {"[1]": {"system": "carrageenin oedema on rat paw", "experiment": "Antioedema activity (carrageenin oedema test)", "type": "in vivo", "experimental": "(b) Antioedema activity (carrageenin oedema test) Antioedema activity was evaluated in the test of carrageenin oedema on rat paw, after oral and topical administration."}, "phenylquinone writhing": {"system": "phenylquinone writhing", "experiment": "Analgesic activity (phenylquinone writhing test)", "type": "in vivo", "settings": "mouse", "excerpt": "(c) Analgesic activity (phenylguinone writhing test)"}, "mucus excretion": {"system": "mucus excretion", "experiment": "Mucolytic / expectorant activity (sodium fluorescein excretion)", "type": "in vivo", "settings": "mouse"}, "rat": {"system": "rat", "settings": "in vivo, po", "excerpt": "| ^a maximal nondiarrhoic dose"}}, "data": [{"molecule": "CC(=O)Oc1ccccc1C(=O)O", "note": "[ASA, acetylsalicylic acid]", "values": [{"measurement": "% change in paw oedema versus controls", "setting": "[1]; 1 hour, 200 mg/kg os", "result": -51, "unit": "%"}, {"measurement": "% change in paw oedema versus controls", "setting": "[1]; 2 hours, 200 mg/kg os", "result": -39, "unit": "%"}, {"measurement": "% change in paw oedema versus controls", "setting": "[1]; 3 hours, 200 mg/kg os", "result": -52, "unit": "%"}, {"measurement": "% change in paw oedema versus controls", "setting": "[1]; 4 hours, 200 mg/kg os", "result": -45, "unit": "%"}, {"measurement": "% change in paw oedema versus controls", "setting": "[1]; 5 hours, 200 mg/kg os", "result": -42, "unit": "%"}, {"measurement": "% Variation in comparison with controls", "setting": "phenylquinone writhing; 50 mg/kg os", "result": -31, "unit": "%"}, {"measurement": "% Variation in comparison with controls", "setting": "phenylquinone writhing; 100 mg/kg os", "result": -32, "unit": "%"}]}, {"molecule": "CN(Cc1cc(Br)cc(Br)c1N)C1CCCCC1", "note": "[Bromhexin, Bromhexine]", "values": [{"measurement": "% increase of sodium fluorescein excretion in comparison with controls", "setting": "mucus excretion; 75 × 1 mg/kg", "result": "+48%"}]}, {"molecule": "CCCCC1C(=O)N(c2ccccc2)N(c2ccccc2)C1=O", "note": "[Phenylbutazone]", "values": [{"measurement": "% change in paw oedema versus controls", "setting": "[1]; 1 hour, 100 mg/kg os", "result": -38, "unit": "%"}, {"measurement": "% change in paw oedema versus controls", "setting": "[1]; 2 hours, 100 mg/kg os", "result": -30, "unit": "%"}, {"measurement": "% change in paw oedema versus controls", "setting": "[1]; 3 hours, 100 mg/kg os", "result": -58, "unit": "%"}, {"measurement": "% change in paw oedema versus controls", "setting": "[1]; 4 hours, 100 mg/kg os", "result": -54, "unit": "%"}, {"measurement": "% change in paw oedema versus controls", "setting": "[1]; 5 hours, 100 mg/kg os", "result": -47, "unit": "%"}]}, {"molecule": "CC1=CCC(C(C)(C)O)CC1O", "note": "(centres unmarked) [Sobrerol]", "values": [{"measurement": "% increase of sodium fluorescein excretion in comparison with controls", "setting": "mucus excretion; 150 × 1 mg/kg", "result": "+67%"}]}, {"molecule": "Escine", "values": [{"measurement": "% change in paw oedema versus controls", "setting": "[1]; 1 hour, 50 mg/kg os (maximal nondiarrhoic dose)", "result": -39, "unit": "%"}, {"measurement": "% change in paw oedema versus controls", "setting": "[1]; 2 hours, 50 mg/kg os (maximal nondiarrhoic dose)", "result": -44, "unit": "%"}, {"measurement": "% change in paw oedema versus controls", "setting": "[1]; 3 hours, 50 mg/kg os (maximal nondiarrhoic dose)", "result": -51, "unit": "%"}, {"measurement": "% change in paw oedema versus controls", "setting": "[1]; 4 hours, 50 mg/kg os (maximal nondiarrhoic dose)", "result": -49, "unit": "%"}, {"measurement": "% change in paw oedema versus controls", "setting": "[1]; 5 hours, 50 mg/kg os (maximal nondiarrhoic dose)", "result": -35, "unit": "%"}, {"measurement": "maximal nondiarrhoic dose", "setting": "rat", "result": 50, "unit": "mg/kg"}]}]}
